Assay results as given in ChEMBL document CHEMBL5038634, “Virtual Screening Directly Identifies New Fragment-Sized Inhibitors of Carboxylesterase Notum with Nanomolar Activity” (J Med Chem, 2022).
Converted amounts (≈) assume the structure as drawn. “And” between values parts separate entries of the source, which are not always exact repeats. Equal entries are not always repeated.

Key:
[1] = target: T1, Palmitoleoyl-protein carboxylesterase NOTUM (Homo sapiens, UniProt Q6P988, C330S); assay: Inhibition of human Notum (81 to 451 Cys330Ser) using OPTS as substrate incubated for 40 mins by fluorescence based assay
[2] = target: T1, Palmitoleoyl-protein carboxylesterase NOTUM; assay: Inhibition of Notum (81 to 451 Cys330Ser) in HEK293T cells expressing TCF-LEF assessed as activation of Wnt signaling using WNT3A as substrate incubated for […] by Steady-Glo luciferase assay; format: cell-based
[3] = test system: HEK-293T; assay: Cytotoxicity against HEK293T cells expressing TCF-LEF assessed as adverse effects on cell health by Cell Titre Glo assay; format: toxicity, cell-based; details: human
[4] = test system: HEK-293T; assay: Cytotoxicity against HEK293T cells expressing TCF-LEF assessed as effect on total cell number by GFP based assay; format: toxicity; details: human
[5] = C0 in C57BL/6J mouse at 0.4 mg/kg, iv measured at 0.08 to 24 hrs by LC-MS/MS analysis; format: ADME, organism-based; details: in vivo, time 0.08-24 hrs
[6] = Half life in C57BL/6J mouse at 0.4 mg/kg, iv measured at 0.08 to 24 hrs by LC-MS/MS analysis; format: ADME, organism-based; details: in vivo, time 0.08-24 hrs
[7] = Volume of distribution at steady state in C57BL/6J mouse at 0.4 mg/kg, iv measured at 0.08 to 24 hrs by LC-MS/MS analysis; format: ADME, organism-based; details: in vivo, time 0.08-24 hrs, read-out: Vdss
[8] = Clearance in C57BL/6J mouse at 0.4 mg/kg, iv measured at 0.08 to 24 hrs by LC-MS/MS analysis; format: ADME, organism-based; details: in vivo, time 0.08-24 hrs
[9] = AUC (infinity) in C57BL/6J mouse at 0.4 mg/kg, iv measured at 0.08 to 24 hrs by LC-MS/MS analysis; format: ADME, organism-based; parameters: route intravenous, time upper 24 hrs, time lower 0.08 hrs, dose 0.4 mg/kg; details: in vivo
[10] = AUC (all) in C57BL/6J mouse at 0.4 mg/kg, iv measured at 0.08 to 24 hrs by LC-MS/MS analysis; format: ADME, organism-based; parameters: route intravenous, time 0.08-24 hrs, dose 0.4 mg/kg; details: in vivo
[11] = Drug concentration in C57BL/6J mouse brain at 0.4 mg/kg, iv measured at 1 hr by LC-MS/MS analysis; format: ADME, organism-based; details: read-out: Drug uptake
[12] = Drug concentration in C57BL/6J mouse brain at 0.4 mg/kg, iv measured at 4 hrs by LC-MS/MS analysis; format: ADME, organism-based; details: read-out: Drug uptake
[13] = Apparent permeability from apical to basolateral side in dog MDCKII-MDR1 cells at 10 uM incubated upto 120 mins by LC-MS/MS analysis; format: ADME, cell-based, Canis lupus familiaris; details: MDCK-MDR1
[14] = Aqueous solubility of the compound at pH 7.4 in pION buffer at 500uM incubated for 18 hrs by spectrophotometry analysis; format: physicochemical
[15] = Intrinsic clearance in mouse liver microsome at 1 uM incubated upto 60 mins in presence of NADPH by LC-MS/MS analysis; format: ADME; details: liver microsomes, read-out: CLH
[16] = Plasma protein binding in CD-1 mouse assessed as unbound fraction at 2 uM by Equilibrium dialysis method; format: ADME, cell-free
[17] = Acidic dissociation constant, pKa of the compound at pH 7.4; format: physicochemical
[18] = Plasma protein binding in CD-1 mouse at 2 uM by Equilibrium dialysis method; format: ADME, cell-free; details: read-out: PPB (converted)
[19] = Apparent permeability from basolateral to apical side in dog MDCKII-MDR1 cells at 10 uM incubated upto 120 mins by LC-MS/MS analysis; format: ADME, cell-based, Canis lupus familiaris; details: MDCK-MDR1
[20] = Stability in mouse liver microsome assessed as half life at 1 uM incubated upto 60 mins in presence of NADPH by LC-MS/MS analysis; format: ADME; details: liver microsomes
[21] = Apparent permeability in MDCKII-MDR1 cells assessed as compound recovery at 10 uM incubated upto 120 mins by LC-MS/MS analysis; format: ADME, cell-based, Canis lupus familiaris; details: dog, MDCK-MDR1, read-out: Activity

O=c1[nH]nc2ccc(Sc3ccc(C(F)(F)F)cc3)nn12
IC50 [1]: 28 nM
EC50 [2]: 300 nM

O=c1[nH]nc2ccc(Sc3ccc(Cl)c(Cl)c3)nn12
IC50 [1]: 5 nM
EC50 [2]: 110 nM
Activity [3]: Non-Toxic
Activity [4]: Non-Toxic
C0 [5]: 1580 ng/mL
half-life [6]: 42 min
Vd [7]: 0.7 L/kg
clearance [8]: 17.8 mL/min/kg
AUC(0-inf) [9]: 370 ng·h/mL
AUC [10]: 360 ng·h/mL
concentration at 1 h [11]: < 5 ng/mL
concentration at 4 h [12]: < 5 ng/mL

Cc1ccc(Sc2ccc3n[nH]c(=O)n3n2)nc1
IC50 [1]: 3600 nM

Cc1ccc(/C=C2/N=C(c3cccc(Cl)c3Cl)OC2=O)o1
IC50 [1]: 22 nM

O=c1[nH]nc2ccc(Sc3cccc(C(F)(F)F)n3)nn12
IC50 [1]: 410 nM
EC50 [2]: > 10000 nM

O=c1[nH]nc2ccc(Sc3ccccc3F)nn12
IC50 [1]: 87 nM
EC50 [2]: 1100 nM

O=c1[nH]nc2ccc(Sc3ccccc3C(F)(F)F)nn12
IC50 [1]: 89 nM
EC50 [2]: 930 nM

COc1ccc(/C=C2/N=C(c3cccc(Cl)c3Cl)OC2=O)c(OC)c1
IC50 [1]: > 10000 nM

O=c1[nH]nc2ccc(Sc3cccc(F)c3)nn12
IC50 [1]: 30 nM
EC50 [2]: 260 nM

Cc1cccc(Sc2ccc3n[nH]c(=O)n3n2)n1
IC50 [1]: 650 nM
EC50 [2]: > 10000 nM

Cc1cccc(Sc2ccc3n[nH]c(=O)n3n2)c1
IC50 [1]: 9 nM
EC50 [2]: 240 nM

O=c1[nH]nc2ccc(Sc3ccc(F)c(F)c3)nn12
IC50 [1]: 120 nM
EC50 [2]: 1100 nM

Cc1ccc(Sc2ccc3n[nH]c(=O)n3n2)cc1C
IC50 [1]: 7 nM
EC50 [2]: 130 nM

O=C1OC(c2cccc(Cl)c2Cl)=N/C1=C/c1ccco1
IC50 [1]: 12 nM

Cc1ccccc1COc1nn2c(=O)c(C)nnc2s1
IC50 [1]: 320 nM and 1600 nM

O=c1[nH]nc2ccc(Sc3ccccc3Cl)nn12
IC50 [1]: 30 nM
EC50 [2]: 720 nM

O=c1[nH]nc2ccc(Sc3cccc(OC(F)(F)F)c3)nn12
IC50 [1]: 4 nM
EC50 [2]: 34 nM
Activity [3]: Non-Toxic
Activity [4]: Non-Toxic
C0 [5]: 1900 ng/mL
half-life [6]: 6 min
Vd [7]: 0.2 L/kg
clearance [8]: 24.8 mL/min/kg
AUC(0-inf) [9]: 270 ng·h/mL
AUC [10]: 270 ng·h/mL
concentration at 1 h [11]: < 5 ng/mL
concentration at 4 h [12]: < 5 ng/mL

O=c1[nH]nc2ccc(Sc3cccc(Cl)c3)nn12
IC50 [1]: 6 nM
EC50 [2]: 88 nM
Activity [3]: Non-Toxic
Activity [4]: Non-Toxic
C0 [5]: 1750 ng/mL
half-life [6]: 18 min
Vd [7]: 0.3 L/kg
clearance [8]: 22.2 mL/min/kg
AUC(0-inf) [9]: 300 ng·h/mL
AUC [10]: 300 ng·h/mL
concentration at 1 h [11]: < 5 ng/mL
concentration at 4 h [12]: < 5 ng/mL

O=c1[nH]nc2ccc(Sc3ccc(Cl)cc3)nn12
IC50 [1]: 21 nM
EC50 [2]: 310 nM

Cc1ccc(Sc2ccc3n[nH]c(=O)n3n2)cc1
Papp A→B at 2 h, 10 µM [13]: 52 ×10⁻⁶ cm/s
IC50 [1]: 27 nM
EC50 [2]: 86 nM
solubility at 18 h, 500 µM [14]: 32 µg/mL and 120 µM
microsomal CLint at 1 µM [15]: 21 µL/min/mg
Activity [3]: Non-Toxic
Activity [4]: Non-Toxic
fraction unbound at 2 µM [16]: 0.011
pKa [17]: 7.9
fraction unbound at 2 µM [18]: 0.012
C0 [5]: 2620 ng/mL
half-life [6]: 36 min
Vd [7]: 0.1 L/kg
clearance [8]: 2.8 mL/min/kg
AUC(0-inf) [9]: 2350 ng·h/mL
AUC [10]: 2330 ng·h/mL
concentration at 1 h [11]: < 5 ng/mL
concentration at 4 h [12]: < 5 ng/mL
Papp B→A at 2 h, 10 µM [19]: 43 ×10⁻⁶ cm/s

Cc1ccc(/C=C2\N=C(c3ccc(C)c(C)c3)OC2=O)o1
IC50 [1]: 17 nM
solubility at 18 h, 500 µM [14]: 0.31 µg/mL (≈ 1.1 µM)
microsomal CLint at 1 µM [15]: 1.9 µL/min/mg
half-life at 1 µM [20]: 360 min
recovery at 2 h, 10 µM [21]: < 25%

O=c1[nH]nc2ccc(Sc3ccccc3)nn12
IC50 [1]: 150 nM

Cc1ccc(Oc2ccc3n[nH]c(=O)n3n2)cc1
IC50 [1]: 3100 nM

O=C1OC(c2cccc3ccccc23)=N/C1=C/c1ccco1
IC50 [1]: 100 nM

Cc1ccccc1Sc1ccc2n[nH]c(=O)n2n1
IC50 [1]: 50 nM
EC50 [2]: 300 nM

Cc1cc(C)cc(Sc2ccc3n[nH]c(=O)n3n2)c1
IC50 [1]: 47 nM

COC(=O)CCC(=O)N1CCc2ccccc21
IC50 [1]: 90 nM
